Data from ChEMBL document CHEMBL1697731, “Cheminformatics analysis of assertions mined from literature that describe drug-induced liver injury in different species” (Chem Res Toxicol, 2010).

What was measured:
Hepatotoxicity [1] = test: Literature-mined compound from Fourches et al multi-species drug-induced liver injury (DILI) dataset, effect in humans; settings: human
Hepatotoxicity [2] = test: Literature-mined compound from Fourches et al multi-species drug-induced liver injury (DILI) dataset, effect in rodents; settings: rodentia
Hepatotoxicity [3] = test: Literature-mined compound from Fourches et al multi-species drug-induced liver injury (DILI) dataset, effect in non-rodents

Compound | Hepatotoxicity (Hepatotoxicity [1]) | Hepatotoxicity (Hepatotoxicity [2]) | Hepatotoxicity (Hepatotoxicity [3])
GENTAMICIN | no drug-induced liver injury reported | drug-induced liver injury reported | no drug-induced liver injury reported
OXALIPLATIN | drug-induced liver injury reported | no drug-induced liver injury reported | no drug-induced liver injury reported
C[C@]12CCC3=C4CCC(=O)C=C4CC[C@H]3[C@@H]1CC[C@@]2(O)CC#N [DIENOGEST] | no drug-induced liver injury reported | drug-induced liver injury reported | no drug-induced liver injury reported
O=C(CC1NCCCC1O)Cn1cnc2cc(Br)c(Cl)cc2c1=O (stereo not given) [HALOFUGINONE] | drug-induced liver injury reported | drug-induced liver injury reported | no drug-induced liver injury reported
Cn1c(=O)c2c(ncn2C)n(C)c1=O [CAFFEINE] | drug-induced liver injury reported | drug-induced liver injury reported | no drug-induced liver injury reported
CN(C)[C@@H]1C(O)=C(C(N)=O)C(=O)[C@@]2(O)C(O)=C3C(=O)c4c(O)cccc4[C@@](C)(O)[C@H]3[C@H](O)[C@@H]12 [OXYTETRACYCLINE] | no drug-induced liver injury reported | drug-induced liver injury reported | no drug-induced liver injury reported
OC1(c2ccc(Cl)cc2)c2ccccc2C2=NCCN21 (stereo not given) [MAZINDOL] | no drug-induced liver injury reported | drug-induced liver injury reported | no drug-induced liver injury reported
Cc1cn([C@@H]2O[C@H](CO)[C@@H](O)[C@@H]2F)c(=O)[nH]c1=O [5-METHYL-2'-FLUOROARAURACIL] | drug-induced liver injury reported | no drug-induced liver injury reported | no drug-induced liver injury reported
CC(S)C(=O)NCC(=O)O (stereo not given) [TIOPRONIN] | drug-induced liver injury reported | drug-induced liver injury reported | no drug-induced liver injury reported
CN(C)[C@@H]1C(O)=C(C(=O)NCN2CCCC2)C(=O)[C@@]2(O)C(O)=C3C(=O)c4c(O)cccc4[C@@](C)(O)[C@H]3C[C@@H]12 [ROLITETRACYCLINE] | no drug-induced liver injury reported | drug-induced liver injury reported | no drug-induced liver injury reported
CC(C)(Sc1cc(C(C)(C)C)c(O)c(C(C)(C)C)c1)Sc1cc(C(C)(C)C)c(O)c(C(C)(C)C)c1 [PROBUCOL] | drug-induced liver injury reported | drug-induced liver injury reported | drug-induced liver injury reported
COc1cc(/C=C/C(=O)CC(=O)/C=C/c2ccc(O)c(OC)c2)ccc1O [CURCUMIN] | drug-induced liver injury reported | drug-induced liver injury reported | no drug-induced liver injury reported
CN1C(=O)NC(=O)C(C)(C2=CCCCC2)C1=O (stereo not given) [HEXOBARBITAL] | no drug-induced liver injury reported | drug-induced liver injury reported | no drug-induced liver injury reported
CC(=O)O[C@H](CC(=O)[O-])C[N+](C)(C)C [ACETYLCARNITINE] | no drug-induced liver injury reported | drug-induced liver injury reported | no drug-induced liver injury reported
CCCCNC(=O)NS(=O)(=O)c1ccc(N)cc1 [CARBUTAMIDE] | no drug-induced liver injury reported | drug-induced liver injury reported | no drug-induced liver injury reported
